Results reported in PMC7672604, “Design, Synthesis, Molecular Docking, Antiapoptotic and Caspase-3 Inhibition of New 1,2,3-Triazole/Bis-2(1H)-Quinolinone Hybrids” (Molecules, 2020).

What was measured:
[1] = test system: testis of I/R rats; test: Testicular histopathology (H&E, Cosentino's score, Johnson's scoring) in I/R rats; assay type: in vivo; conditions: for Histopathological finding in testis sections: H&E sections; for Histopathological/spermatogenesis scoring difference compared to the reference (NAC): Cosentino's score and Johnson's scoring, p-value < 0.005
From the text: Also, it decreased spermatogenesis when compared to the control group by using Johnson’s scoring system (Figure 9B).
The seminiferous tubules were seen lined with stratified testicular epithelium rested on basement membranes. […] Ruptured tubules and distorted Leydig cells and sloughed cells could be also observed (Figure 10B). […] Distorted Leydig cells with dilated blood vessels (BV) were frequently seen among the sections (Figure 12). […] Dilated blood vessels and the presence of amyloid substance were also found (Figure 13).
Multiple testicular specimens were stained by hematoxylin-eosin (ab245880, Abcam, Cambridge, MA, USA) using Cosentino’s score for semi-quantitation of pathological changes in different seminiferous tubules. By using Johnson’s scoring system, the effect of ischemia on the spermatogenesis can be studied (See Supporting Materials).
Semi-quantitative data were measured and counted per section in ten randomly selected non-overlapping fields using power × 400 magnifications of the sections from each rat. The results were carried out using the Image J program analysis software (Image J 1.48V, Maryland, MD, USA; Wayne Rasb and National Institutes of Health). […]
4. Histopathological Investigation
Multiple testicular specimens were fixed in Bouin's solution for about 24 hour, dehydrated in an alcohol grades, cleaned with xylene and then embedded in paraffin wax. Tissue sections (about six μm) were stained by haematoxylin–eosin (H&E) and were studied by an experienced histologist. In the current study, we used Cosentino's score for semi-quantitation of pathological changes on different seminiferous tubules in the whole groups by grading these tubules between one and four, and the mean scores were taken by dividing the totality to the whole number of testicular tubules .
By using Johnson’s scoring system, the effect of ischemia on the spermatogenesis can be studied.
The grades were counted one to ten, and the total scores were taken by dividing the totality to the whole number of testicular tubules.
4.2.Histopathological grading score (Cosentino's score)
I Normal testicular structure
II less orderly germinal cells with closely packed seminiferous tubules III Anarchic sloughed germinal cells, with less pyknotic nuclei size and less distinct seminiferous […]
IV Closely packed seminiferous tubules and coagulative necrosis
Note: Semi-quantitation of pathological changes on different seminiferous tubules in the whole groups by grading the tubules between 1 and 4, and the mean scores were obtained by dividing the totality to the whole number of testicular tubules.
4.3.Spermatogenesis grading; Score Morphological picture
10 Normal spermatogenesis
9 less defect in spermatogenesis with multiple late spermatids, little disorganized epithelium 8 Less than five spermatozoa/tubule, less late spermatids
7 Absence of spermatozoa, absent late spermatids, more early spermatids 6 No spermatozoa, absence of late spermatids with little early spermatids 5 No spermatozoa or spermatids, more spermatocytes
4 No spermatozoa or spermatids, fewer spermatocytes
2 No germinal cells, only Sertoli cells
1 No seminiferous epithelium
Note: By using Johnsen's scoring system, the effect of ischaemia on the spermatogenesis can be detected. The grades were from 1 to 10, and the total scores were taken by dividing to the whole number of testicular tubules.

[2] = test system: testis of I/R rats; test: Testicular testosterone in testis of I/R rats (ELISA); assay type: in vivo; set-up: unit not given here; conditions: i.p. 1 h before ischemia, dose equivalent to 30 mg NAC, mean ± S.E.M, n=6
Protocol: This section describes the methods used in the investigation of the antiapoptotic effect of the novel compounds 6a–g then supported by further histological and molecular docking studies. The antiapoptotic effect of 6a–g was evaluated through evaluation of decreasing tissue damage induced by I/R in the testis of rats in a dose equivalent to 30 mg N-acetylcysteine (NAC) as an antiapoptotic reference. The rats were subdivided into sham, I/R, NAC and treated with tested compounds groups, each group comprises of 6 rats (weighing 140–150 g). The targeted compounds 6a–g were administrated intra-peritoneal (i.p.) an hour before ischemia, which lasted for (0.5 h) then reperfusion (1 h) followed by cutting the organ (Figure 5). Different biomarkers concentrations were measured in serum to detect testis injury due to ischemia/reperfusion (I/R).
It was reported that excessive apoptosis in the testis could damage the Leydig cells and apparent decline in serum testosterone levels. Furthermore, excessive apoptosis of Leydig cells results in decreased testosterone. The assays of the apoptotic biomarkers (testicular testosterone and TNFα) were done in comparison with the sham and NAC treated group and the results were outlined in Table S4 (Supplementary Materials).
TNF-α was measured by ELISA kit (Elabscience, Houston, TX, USA). Caspase-3 was measured by ELISA kit Cusabio, Houston, TX, USA (See Supplementary Materials). Testosterone concentration in testicular samples was determined by the ELISA kit (“DRG”, Marburg, Germany) (See Supplementary Materials).
1.2.Determination of serum testosterone using ELISA kit
This ELISA kit uses the Competitive-ELISA principle. The micro ELISA plate provided in this kit has been pre-coated with T. During the reaction, T in the sample or standard competes with a fixed amount of T on the solid phase supporter for sites on the Biotinylated Detection Ab specific to T. Excess conjugate and unbound sample or standard are washed from the plate, and Avidin conjugated to Horseradish Peroxidase (HRP) are added to each microplate well and incubated. Then a TMB substrate solution is added to each well. The enzyme-substrate reaction is terminated by the addition of stop solution and the color change is measured spectrophotometrically at a wavelength of 450 nm ± 2 nm. The concentration of T in the samples is then determined by comparing the OD of the samples to the standard […]
Serum: Allow samples to clot for 2 hours at room temperature or overnight at 4℃ before centrifugation for 20 min at 1000×g at 2-8℃. Collect the supernatant to carry out the assay. Blood collection tubes should be disposable and be non-endotoxin. […]
1. Bring all reagents to room temperature (18~25℃) before use. Follow the Microplate reader manual for set-up and preheat it for 15 min before OD measurement.
2. Wash Buffer: Dilute 30 mL of Concentrated Wash Buffer with 720 mL of deionized or distilled water to prepare 750 mL of Wash Buffer. Note: if crystals have formed in the concentrate, warm it in a 40℃ water-bath and mix it gently until the crystals have completely dissolved.
3. Standard working solution: Centrifuge the standard at 10,000×g for 1min. Add 1.0mL of Reference Standard &Sample Diluent, let it stand for 10min and invert it gently several times. After it dissolves fully, mix it thoroughly with a pipette. This reconstitution produces a working solution of 20 ng/mL. Then make serial dilutions as needed. The recommended dilution gradient is as […]
Dilution method: Take 7 EP tubes, add 500uL of Reference Standard & Sample Diluent to each tube. Pipette 500uL of the 20 ng/mL working solution to the first tube and mix up to produce a 10 ng/mL working solution. Pipette 500uL of the solution from the former tube to the latter one according to this step. The illustration below is for reference. Note: the last tube is regarded as a blank. Don’t pipette solution into it from the former tube.

Compound	Histopathological finding in testis sections [1]	Testicular testosterone [2]	Histopathological/spermatogenesis scoring difference compared to the reference (NAC) [1]
CC(=O)N[C@@H](CS)C(=O)O [NAC, N-acetylcysteine, reference compound]	more or less normal seminiferous tubules and Leydig cells except some areas displayed distorted tubules and widening of inter-tubular spaces		
COc1ccc2[nH]c(=O)cc(-n3cc(COc4cc(=O)[nH]c5ccccc45)nn3)c2c1 [6c, 6-Methoxy-4-(4-(((2-oxo-1,2-dihydroquinolin-4-yl)oxy)methyl)-1H-1,2,3-triazol-1-yl)-quinolin-2(1H)-one]		5.00±0.26	
Cn1c(=O)cc(-n2cc(COc3cc(=O)[nH]c4ccccc34)nn2)c2ccccc21 [6d, 1-Methyl-4-(4-(((2-oxo-1,2-dihydroquinolin-4-yl)oxy)methyl)-1H-1,2,3-triazol-1-yl)quinolin-2(1H)-one]	ruptured seminiferous tubules with distorted Leydig cells	2.67±0.25	highly significant histopathological difference
Cc1ccc2[nH]c(=O)cc(OCc3cn(-c4cc(=O)[nH]c5ccc(C)cc45)nn3)c2c1 [6f, 6-Methyl-4-((1-(6-methyl-2-oxo-1,2-dihydroquinolin-4-yl)-1H-1,2,3-triazol-4-yl)meth-oxy)quinolin-2(1H)-one]	ruptured seminiferous tubules with distorted Leydig cells	1.83±0.14	highly significant histopathological difference
COc1ccc2[nH]c(=O)cc(OCc3cn(-c4cc(=O)[nH]c5ccccc45)nn3)c2c1 [6g, 6-Methoxy-4-((1-(2-oxo-1,2-dihydroquinolin-4-yl)-1H-1,2,3-triazol-4-yl)methoxy)quinolin-2-(1H)-one]	dilated seminiferous tubules	3.45±0.22	weak significant differences
Cc1ccc2[nH]c(=O)cc(OCc3cn(-c4cc(=O)[nH]c5ccccc45)nn3)c2c1 [6e, 6-Methyl-4-((1-(2-oxo-1,2-dihydroquinolin-4-yl)-1H-1,2,3-triazol-4-yl)methoxy)quinolin-2(1H)-one]	dilated seminiferous tubules	3.62±0.17	weak significant differences
